The record followed here is ChEMBL document CHEMBL1157088, “Gukulenins A and B, cytotoxic tetraterpenoids from the marine sponge Phorbas gukulensis” (J Nat Prod, 2010).

Common to all, as to format: functional, cell-based
One assay relates to FaDu. The assay is described as follows: Cytotoxicity against human FADU cells after 24 hrs by MTT assay. (In general: Formazan colour is commonly taken as a measure of viable cells.)
The next assay concerns HCT-116. The assay can be described thus: Cytotoxicity against human HCT116 cells after 24 hrs by MTT assay. Particulars: HCT-116, 24 h.
A further assay deals with SN12C. The assay is described as follows: Cytotoxicity against human SN12C cells after 24 hrs by MTT assay.
A further assay concerns MKN-45. The assay is described as follows: Cytotoxicity against human MKN45 cells after 24 hrs by MTT assay. Particulars: MKN-45, 24 h.

Each structure is given as a SMILES string.

Turning to `CC(=O)O[C@@H](CO)[C@]1(C)CC[C@H](C(C)C)[C@@H]1c1cc([C@]2(O)Cc3cc(O)c(=O)c(C)c4c3[C@@H](O2)[C@H](O)[C@]2(C)CC[C@H](C(C)C)[C@H]42)cc(O)c(=O)c1C` [GUKULENIN B], the IC50 in the assay on FaDu stood at 630 nM; in the assay on HCT-116, 550 nM; in the assay with SN12C it was 610 nM; in the assay with MKN-45, 720 nM.

On to `CC(=O)O[C@@H](C=O)[C@]1(C)CC[C@H](C(C)C)[C@@H]1c1cc([C@]2(O)Cc3cc(O)c(=O)c(C)c4c3[C@@H](O2)[C@H](O)[C@]2(C)CC[C@H](C(C)C)[C@H]42)cc(O)c(=O)c1C` [GUKULENIN A], for which the IC50 came out at 57 nM in the assay with FaDu, 62 nM in the assay on HCT-116, 92 nM in the assay on SN12C and 130 nM in the assay on MKN-45.

By IC50 is commonly meant the concentration that inhibits the measured activity by half. Lower therefore signals higher potency.
